Assay [1] relates to rat fibrotic disease model (bleomycin). Nature of the assay: Hydroxyproline (HYP) content / collagen deposition in lung, bleomycin rat fibrosis model. It is filed as in vivo. The settings on record: 2 mg/kg intratracheal twice weekly x4 from Day 1, Day 15, model group = 100.00. The procedure:
This Example was to evaluate the inhibitory effect of polypeptides on collagen deposition at the pathological sites of pulmonary fibrosis. 6- to 8-week-old male SD rats weighing 200 to 220 g were used as subjects for the study. The experimental animals were randomized into groups, 8 animals in each group. On the day of modeling (Day 1), a single dose of 1.8 USP/kg of bleomycin solution was administered via the tracheal route to the model group and each peptide-treated group to induce the model. Starting on Day 1, each peptide-treated group received intratracheal administration of the peptide at a dosage of 2 mg/kg, with a dosing frequency of twice a week, for a total of four administrations. The model group received an equal volume of solvent (saline) as a control, with the volume being 100 μL. The procedure followed that described in Example 4. Day 15 was set as the experimental endpoint for assessing the degree of fibrosis in the model.
On Day 15, the animals were dissected to collect lung tissues. After grinding the rat lung tissues in liquid nitrogen, total hydroxyproline (HYP) was extracted from the tissues using acid hydrolysis, and the HYP content was determined by chloramine T oxidation colorimetry. 1 mL of 6N HCl was added per 100 mg of tissue and thoroughly mixed, followed by hydrolysis at 121° C. for 6 hours. The hydrolysate was centrifuged, and the resulting supernatant was used for HYP content determination. To a 96-well plate, the hydrolysate supernatant, or a gradient of HYP standard solutions (Sigma, Catalog No. V900395-25G) at different concentrations, was added in 10 μL per well, and dried in an oven at 65° C. 100 μL per well of 1.4% chloramine T oxidizing solution (Sigma, Catalog No. 23270-50G) was added, and incubated at room temperature for 15 minutes. 100 μL per well of Ehrlich's color development solution (Solarbio, Catalog No. G1290) was added and incubated at 65° C. for 30 minutes. The absorbance of each sample well was measured at 560 nm (OD560) using a multifunctional microplate reader (TECAN, model Infinite 200 Pro). The total HYP content in the lung tissue from each experimental group was calculated to determine the reduction percentage of HYP content in the peptide-treated group relative to the model group, and the inhibitory effect of the peptide molecule on collagen deposition at the fibrotic site was assessed.

The test system of another assay is P-Smad2/3. Nature of the assay: P-Smad2/3 content in lung tissue, BLM mouse fibrosis model. It is filed as in vivo. To be noted: single intratracheal dose 3 mg/kg on Day 7, lung 24 h later, BLM model group = 100.00. Put shortly: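 Male C57/6J mice (6–8 weeks, 18–20 g, n=8/group) received intratracheal bleomycin 0.7 USP/kg on Day 1, then a single intratracheal 3 mg/kg peptide dose or saline on Day 7. Values are expressed as the treated/model content ratio.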

Assay [2] deals with human hepatic stellate cells (LX-2). Nature of the assay: ECM-related gene expression (RT-qPCR) in TGF-β1-stimulated LX-2 cells, liver fibrosis cell model. The format is cell-based. To be noted: 20 ng/mL TGF-β1 24 h, then 100 μM polypeptide 48 h; for COL I gene expression Mean: blank control 1.00, model group 6.62; for FN gene expression Mean: blank control 1.00, model group 11.38. The text has this:
This Example was to evaluate the inhibitory effect of polypeptides on the expression of extracellular matrix (ECM)-related genes in a cellular model of liver fibrosis. The experiment utilized human hepatic stellate cells (LX-2), which are the primary source of myofibroblasts in the liver. Upon activation, hepatic stellate cells transform into myofibroblasts, which secrete ECM in live and play a direct role in the development of hepatic fibrosis. Transient stimulation of LX-2 cells with TGF-β1 can initiate a positive feedback regulation of TSP-1-TGF-β1 activation, which continuously enhances myofibroblast characteristics, including ECM production.
This experiment was performed as follows. LX-2 cells (Procell, CL-0560) were stimulated by 20 ng/mL TGF-β1 (Genscript, Catalog No.Z03411) for 24 h, then added 100 μM polypeptide and cultured for 48 h. An equal volume of solvent was added to the model group, and LX-2 cells without any treatment were used as a blank control. After that, LX-2 cells were collected and total RNA was extracted for RT-qPCR to detect the expression of ECM-related genes, EDA-Fibronectin (fibronectin, FN) and Collagen I (COL1). The polypeptides were able to reduce the expressions of FN and COL1 genes in LX-2 and inhibit ECM production.
On the technique in general: Real-time PCR tracks product formation cycle by cycle.

Bridge positions count the residues as written; N and C are the ends. Peptide text beside a SMILES is read from it.

As for `C[C@@H]1NC(=O)[C@H](CC(=O)O)NC(=O)[C@H](CCC(N)=O)NC(=O)[C@H]([C@@H](C)O)NC(=O)[C@H](CC(N)=O)NC(=O)[C@H](CC(=O)O)NC(=O)[C@H](CCC(=O)O)NC1=O` [SEQ ID NO: 40, cyclo[Thr-Gln-Asp-Ala-Glu-Asp-Asn]] (cyclo(AEDNTQD)), the “HYP content in lung tissue relative to model group, Mean (%)” value in assay [1] was determined as 72.93%. Further, the “P-Smad2/3 content in lung tissue, ratio to model group, Mean(%)” value in the assay on P-Smad2/3 (3 mg/kg) amounted to 83.20%.
On to `CC(=O)N[C@H](C(=O)N[C@H]1CSSC[C@@H](C(=O)O)NC(=O)[C@H](CC(N)=O)NC(=O)[C@H](CC(=O)O)NC(=O)[C@H](CCC(=O)O)NC(=O)[C@H](C)NC(=O)[C@H](CC(=O)O)NC1=O)[C@@H](C)O` [SEQ ID NO: 43, Ac-Thr-cyclo[Cys-Asp-Ala-Glu-Asp-Asn-Cys]] (Ac-TCDAEDNC-OH; disulfide 2-8), for which the “HYP content in lung tissue relative to model group, Mean (%)” value in assay [1] was found to be 72.91%. Moreover, in assay [2], the “COL I gene expression Mean” value worked out at 4.63 and the “FN gene expression Mean” value is 5.80. In addition, in the assay with P-Smad2/3, the “P-Smad2/3 content in lung tissue, ratio to model group, Mean(%)” value came to 49.30%.
In the same order, the values of “Ac-TQDAEDN-NH2 [SEQ ID NO: 06, Ac-Thr-Gln-Asp-Ala-Glu-Asp-Asn-NH2]” are 80.30%, 4.57, 5.72 and 54.89%.
In the case of “Ac-TQDAEDPTAS-NH2 [SEQ ID NO: 25, Ac-Thr-Gln-Asp-Ala-Glu-Asp-Pro-Thr-Ala-Ser-NH2]”, in assay [1], the “HYP content in lung tissue relative to model group, Mean (%)” value stood at 81.45%. Further, in assay [2], the “COL I gene expression Mean” value is on record as 4.00 and the “FN gene expression Mean” value worked out at 6.47. Moreover, the “P-Smad2/3 content in lung tissue, ratio to model group, Mean(%)” value in the assay on P-Smad2/3 stood at 65.07%.
Turning to `CC(=O)N[C@H](C(=O)N[C@H]1CSSC[C@@H](C(N)=O)NC(=O)[C@H](CC(N)=O)NC(=O)[C@H](CC(=O)O)NC(=O)[C@H](CCC(=O)O)NC(=O)[C@H](C)NC(=O)[C@H](CC(=O)O)NC1=O)[C@@H](C)O` [SEQ ID NO: 44, Ac-Thr-cyclo[Cys-Asp-Ala-Glu-Asp-Asn-Cys]-NH2] (Ac-TCDAEDNC-NH2; disulfide 2-8), the “HYP content in lung tissue relative to model group, Mean (%)” value in assay [1] worked out at 65.55%. Also, the “P-Smad2/3 content in lung tissue, ratio to model group, Mean(%)” value in the assay with P-Smad2/3 is listed as 79.93%.
“Ac-TQDAEDNTASH-NH2 [SEQ ID NO: 33, Ac-Thr-Gln-Asp-Ala-Glu-Asp-Asn-Thr-Ala-Ser-His-NH2]”: in assay [1], the “HYP content in lung tissue relative to model group, Mean (%)” value is 80.28%. In assay [2], the “COL I gene expression Mean” value amounted to 4.49 and the “FN gene expression Mean” value is recorded as 6.80. Moreover, the “P-Smad2/3 content in lung tissue, ratio to model group, Mean(%)” value in the assay on P-Smad2/3 turned out to be 71.09%.
On the same counts, the results for “Ac-TQDPEDNTAS-NH2 [SEQ ID NO: 26, Ac-Thr-Gln-Asp-Pro-Glu-Asp-Asn-Thr-Ala-Ser-NH2]” are 78.75%, 4.30, 5.79 and 76.78%.
For `C[C@@H]1NC(=O)[C@H]([C@@H](C)O)NC(=O)[C@H](CC(N)=O)NC(=O)[C@H](CC(=O)O)NC(=O)[C@H](CCC(=O)O)NC(=O)[C@@H]2CCCN2C(=O)[C@H](CC(=O)O)NC(=O)[C@H](CCC(N)=O)NC(=O)[C@H]([C@@H](C)O)NC(=O)[C@H](CO)NC1=O` [SEQ ID NO: 46, cyclo[Thr-Gln-Asp-Pro-Glu-Asp-Asn-Thr-Ala-Ser]] (cyclo(ASTQDPEDNT)), the “HYP content in lung tissue relative to model group, Mean (%)” value in assay [1] is listed as 66.46%. Also, the “P-Smad2/3 content in lung tissue, ratio to model group, Mean(%)” value in the assay on P-Smad2/3 came to 74.60%.
As for “Ac-TQDAEDPTA-NH2 [SEQ ID NO: 22, Ac-Thr-Gln-Asp-Ala-Glu-Asp-Pro-Thr-Ala-NH2]”, the “HYP content in lung tissue relative to model group, Mean (%)” value in assay [1] is 68.30%. In assay [2], the “COL I gene expression Mean” value was 4.63 and the “FN gene expression Mean” value was 6.62. For the same compound, the “P-Smad2/3 content in lung tissue, ratio to model group, Mean(%)” value with P-Smad2/3 is 55.32%.
